From US20240116885A1, “BENZOTHIAZOLE AND QUINOLINE DERIVATIVES AND THEIR USE” (Shanghai Yao Yuan Biotechnology Co., Ltd., priority 2020, published 2024)

Tests used:
ALPK1 = ALPK1 (Homo sapiens (Human), UniProt Q96QP1); test: ALPK1 in vitro kinase assay (HTRF, TIFA phosphorylation); assay type: biochemical; conditions: ADP-Heptose activated ALPK1
Protocol: ALPK1 kinase activity was measured in an in vitro assay using ADP-Heptose as the ALPK1 ligand and activator of its kinase activity and TIFA protein as the ALPK1 phosphorylation substrate. Since phosphorylated TIFA proteins oligomerize, Homogeneous Time-Resolved Fluorescence (HTRF) was used to measure protein:protein interaction between HA-tagged TIFA proteins as an indicator of TIFA phosphorylation.
In brief, dose-response studies were performed with HEK293 cells cultured in Dulbecco's Modified Eagle Medium (DMEM) supplemented 10% fetal bovine serum (FBS, Hyclone™) containing antibiotics (pen/strep, G418) in 384-well assay plates. Each well contained 0.1 mg TIFA, ALPK1 (2 nM final concentration in reaction mixture) and kinase buffer (100 mM of HEPES pH 7.4, 4 mM DTT, 40 mM MgCl2, 20 mM of β-Glycerol phosphate disodium salt, 0.4 mM of Na3VO4, 0.16 mg/mL). Titrations of the test compounds were prepared in dimethylsulphoxide (DMSO). The reaction was initiated by addition of ATP and ADP-Heptose.
For HTRF, samples were incubated with a Tb cryptate-labeled anti-HA antibody for capturing HA-tagged proteins according to the manufacturer's instructions (PerkinElmer™, CisBio™) and the fluorescence signal was quantified (Tecan Infinite F NANO+). HTRF signals were calculated as the HTRF ratio (ratio of fluorescence measured at 665 nm and 620 nm)×104 (thereby using the signal at 620 nm as an internal standard).
IC50 values were determined using 3- or 4-parameter logistic equation using GraphPad Prism version 6.00. The reference compound, A027, was used as a positive control for each plate.

[1] = system: ALPK1-dependent NFκB reporter gene activation; test: NFκB gene reporter alkaline phosphatase assay in HEK293 G9 cells; assay type: cell-based; conditions: Homo sapiens; HEK293 G9 cells stimulated with D-glycero-D-manno-6-fluoro-heptose-1β-S-ADP
Protocol: An alkaline phosphatase reporter assay system was used to measure inhibition of ALPK1-dependent NFκB reporter gene activation. Briefly, HEK293 cells stably expressing an NF-kB reporter (referred to herein as “G9 cells”) were maintained in DMEM as described above. For the assay, cells were seeded into 96-well plates at a density of 10,000 cells/well in Freestyle™ 293 Expression Medium (ThermoFisher), and allowed to attach overnight. Cells were pretreated with serially diluted compounds for 30 min and then stimulated with D-glycero-D-manno-6-fluoro-heptose-1β-S-ADP. […] NFkB gene activation was detected using the chromogenic substrate, para-nitrophenyl phosphate (pNPP) according to the manufacturer's protocols (pNPP Phosphatase Assay, Beyotime Biotechnology).

Chain of ALPK1 (Q96QP1 whole entry): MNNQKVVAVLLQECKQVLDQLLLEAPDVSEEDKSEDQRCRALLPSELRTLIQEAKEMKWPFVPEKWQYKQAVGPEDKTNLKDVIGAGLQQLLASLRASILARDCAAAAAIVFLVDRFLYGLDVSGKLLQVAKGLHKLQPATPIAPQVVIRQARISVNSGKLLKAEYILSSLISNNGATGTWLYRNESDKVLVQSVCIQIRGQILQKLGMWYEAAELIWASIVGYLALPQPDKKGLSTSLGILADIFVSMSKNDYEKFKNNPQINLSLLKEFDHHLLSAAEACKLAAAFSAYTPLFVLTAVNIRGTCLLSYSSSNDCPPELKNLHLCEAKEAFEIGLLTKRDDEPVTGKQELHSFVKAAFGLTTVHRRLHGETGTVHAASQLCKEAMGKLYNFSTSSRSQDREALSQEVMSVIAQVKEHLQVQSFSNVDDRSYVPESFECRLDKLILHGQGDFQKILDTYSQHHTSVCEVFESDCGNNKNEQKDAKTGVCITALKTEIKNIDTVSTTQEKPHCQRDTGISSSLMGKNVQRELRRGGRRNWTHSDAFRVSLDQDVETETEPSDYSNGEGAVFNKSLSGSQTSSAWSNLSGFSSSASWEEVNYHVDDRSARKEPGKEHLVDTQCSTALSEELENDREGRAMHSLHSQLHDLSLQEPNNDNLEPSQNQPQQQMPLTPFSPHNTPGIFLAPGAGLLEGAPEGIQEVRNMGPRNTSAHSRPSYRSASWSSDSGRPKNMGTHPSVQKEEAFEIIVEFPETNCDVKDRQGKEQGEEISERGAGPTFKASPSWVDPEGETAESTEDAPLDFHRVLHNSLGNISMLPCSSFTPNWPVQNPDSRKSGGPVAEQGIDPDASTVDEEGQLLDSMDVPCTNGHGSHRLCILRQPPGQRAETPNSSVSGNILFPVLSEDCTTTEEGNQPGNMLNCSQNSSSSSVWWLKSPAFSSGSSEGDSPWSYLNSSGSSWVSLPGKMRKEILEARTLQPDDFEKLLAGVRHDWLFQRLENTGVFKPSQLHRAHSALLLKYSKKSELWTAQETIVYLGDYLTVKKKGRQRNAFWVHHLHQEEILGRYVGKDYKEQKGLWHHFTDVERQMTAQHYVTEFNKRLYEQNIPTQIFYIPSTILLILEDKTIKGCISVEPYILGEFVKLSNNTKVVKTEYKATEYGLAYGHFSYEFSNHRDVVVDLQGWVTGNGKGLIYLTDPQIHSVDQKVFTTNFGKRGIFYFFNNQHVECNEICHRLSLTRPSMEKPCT

Compound | IC50 (ALPK1) [µM] | IC50 [1] [µM]
CC#Cc1cccc2sc(NC(=O)c3c(F)cc(N4CCNCC4)cc3F)nc12 [Compound T049, 2,6-difluoro-4-(piperazin-1-yl)-N-(4-(prop-1-yn-1-yl)benzo[d]thiazol-2-yl)benzamide] | 0.043 | 2.1
C#Cc1cccc2sc(NC(=O)c3c(F)cc(N4CC[C@@H](N)C4)cc3F)nc12 [Compound T053, (R)-4-(3-aminopyrrolidin-1-yl)-N-(4-ethynylbenzo[d]thiazol-2-yl)-2,6-difluorobenzamide] | 0.083 | 0.89
COc1cccc2ccc(NC(=O)c3c(F)cc(N4CCN(C)CC4)cc3F)nc12 [Compound Q002, 2,6-difluoro-N-(8-methoxyquinolin-2-yl)-4-(4-methylpiperazin-1-yl)benzamide] | 0.157 | 2.3
C#Cc1cccc2sc(NC(=O)c3c(C)cc(N4CCNCC4)cc3F)nc12 [Compound T050, N-(4-ethynylbenzo[d]thiazol-2-yl)-2-fluoro-6-methyl-4-(piperazin-1-yl)benzamide] | 0.098 | 0.96
COc1cccc2sc(NC(=O)c3c(F)cc(CN4CCNCC4)cc3F)nc12 [Compound T018, 2,6-difluoro-N-(4-methoxybenzo[d]thiazol-2-yl)-4-(piperazin-1-ylmethyl)benzamide] |  | 2.46
O=C(Nc1nc2c(Br)cccc2s1)c1c(F)cc(CCN2CCNCC2)cc1F [Compound T021, N-(4-bromobenzo[d]thiazol-2-yl)-2,6-difluoro-4-(2-(piperazin-1-yl)ethyl)benzamide] | 0.148 | 1.2
COc1cccc2sc(NC(=O)c3c(C)cc(N4CCNCC4)cc3F)nc12 [Compound T002, 2-fluoro-N-(4-methoxybenzo[d]thiazol-2-yl)-6-methyl-4-(piperazin-1-yl)benzamide] | 0.176 | 2.46
C#Cc1cccc2sc(NC(=O)c3c(F)cc(N4CCN(Cc5ccc(F)cc5)CC4)cc3F)nc12 [Compound T065, N-(4-ethynylbenzo[d]thiazol-2-yl)-2,6-difluoro-4-(4-(4-fluorobenzyl)piperazin-1-yl)benzamide] | 0.182 | 6.58
COc1cccc2sc(NC(=O)c3c(F)cc(OCCO)cc3F)nc12 [Compound T029, 2,6-difluoro-4-(2-hydroxyethoxy)-N-(4-methoxybenzo[d]thiazol-2-yl)benzamide] | 0.56 | 2.99
COc1cc(F)cc2ccc(NC(=O)c3c(F)cc(N4CCNCC4)cc3F)nc12 [Compound Q007, 2,6-difluoro-N-(6-fluoro-8-methoxyquinolin-2-yl)-4-(piperazin-1-yl)benzamide] | 0.176 | 6.78
CN1CCN(c2cc(F)c(C(=O)Nc3nc4c(Br)cccc4s3)c(F)c2)CC1 [Compound T044, N-(4-bromobenzo[d]thiazol-2-yl)-2,6-difluoro-4-(4-methylpiperazin-1-yl)benzamide] | 0.013 | 1.09
COc1cccc2sc(NC(=O)c3c(F)cc(N4CCNCC4C)cc3F)nc12 (stereo not drawn) [Compound T014, 2,6-difluoro-N-(4-methoxybenzo[d]thiazol-2-yl)-4-(2-methylpiperazin-1-yl)benzamide] |  | 1.31
COc1cccc2sc(NC(=O)c3c(F)cc(N4CCC(N)C4)cc3F)nc12 (stereo not drawn) [Compound T026, 4-(3-aminopyrrolidin-1-yl)-2,6-difluoro-N-(4-methoxybenzo[d]thiazol-2-yl)benzamide] | 0.125 | 2.38
C#Cc1cccc2sc(NC(=O)c3c(F)cc(N4CCN(C(N)=O)CC4)cc3F)nc12 [Compound T055, 4-(4-((4-ethynylbenzo[d]thiazol-2-yl)carbamoyl)-3,5-difluorophenyl)piperazine-1-carboxamide] | 0.126 | 2.15
O=C(Nc1nc2c(Cl)cccc2s1)c1c(F)cc(N2CCNCC2)cc1F [Compound T046, N-(4-chlorobenzo[d]thiazol-2-yl)-2,6-difluoro-4-(piperazin-1-yl)benzamide] | 0.056 | 1.32
Cc1cc(Cl)cc2sc(NC(=O)c3c(F)cc(N4CCNCC4)cc3F)nc12 [Compound T038, N-(6-chloro-4-methylbenzo[d]thiazol-2-yl)-2,6-difluoro-4-(piperazin-1-yl)benzamide] | 0.255 | 9.98

Compound | IC50 (ALPK1) [µM] | IC50 [1] [µM]
COc1cccc2ncc(NC(=O)c3c(F)cc(N4CCNCC4)cc3F)nc12 [Compound Q009, 2,6-difluoro-N-(8-methoxyquinoxalin-2-yl)-4-(piperazin-1-yl)benzamide] | 0.178 | 3.72
O=C(Nc1nc2c(Br)cccc2s1)c1c(F)cc(N2CCNC(CO)C2)cc1F (stereo not drawn) [Compound T033, N-(4-bromobenzo[d]thiazol-2-yl)-2,6-difluoro-4-(3-(hydroxymethyl)piperazin-1-yl)benzamide] | 0.038 | 1.33
O=C(Nc1nc2ccccc2s1)c1c(F)cc(N2CCNCC2)cc1F [Compound T041, N-(benzo[d]thiazol-2-yl)-2,6-difluoro-4-(piperazin-1-yl)benzamide] |  | 3.96
COc1cccc2sc(NC(=O)c3c(F)cc(N4CCC(O)C4)cc3F)nc12 (stereo not drawn) [Compound T027, 2,6-difluoro-4-(3-hydroxypyrrolidin-1-yl)-N-(4-methoxybenzo[d]thiazol-2-yl)benzamide] | 1.17 | 3.65
C#Cc1cccc2sc(NC(=O)c3c(F)cc(N4CCNCC4CC)cc3F)nc12 (stereo not drawn) [Compound T052, 4-(2-ethylpiperazin-1-yl)-N-(4-ethynylbenzo[d]thiazol-2-yl)-2,6-difluorobenzamide] | 0.058 | 1.32
C#Cc1cccc2sc(NC(=O)c3c(F)cc(N4CCNCC4C)cc3F)nc12 (stereo not drawn) [Compound T059, N-(4-ethynylbenzo[d]thiazol-2-yl)-2,6-difluoro-4-(2-methylpiperazin-1-yl)benzamide] | 0.043 | 0.55
COc1cccc2ccc(NC(=O)c3c(F)cc(N4CCC(O)CC4)cc3F)nc12 [Compound Q003, 2,6-difluoro-4-(4-hydroxypiperidin-1-yl)-N-(8-methoxyquinolin-2-yl)benzamide] | 0.369 | 2.97
COC(=O)C1CCN(c2cc(F)c(C(=O)Nc3nc4c(OC)cccc4s3)c(F)c2)CC1 [Compound T011, methyl 1-(3,5-difluoro-4-((4-methoxybenzo[d]thiazol-2-yl)carbamoyl)phenyl)piperidine-4-carboxylate] | 0.42 | 6.65
COc1cc(F)cc2sc(NC(=O)c3c(F)cc(N4CCNCC4)cc3F)nc12 [Compound T030, 2,6-difluoro-N-(6-fluoro-4-methoxybenzo[d]thiazol-2-yl)-4-(piperazin-1-yl)benzamide] | 0.318 | 2.22
C#Cc1cccc2sc(NC(=O)c3c(F)cc(N4CCNCC4C(C)C)cc3F)nc12 (stereo not drawn) [Compound T051, N-(4-ethynylbenzo[d]thiazol-2-yl)-2,6-difluoro-4-(2-isopropylpiperazin-1-yl)benzamide] | 0.056 | 1.59
CC(C)Oc1cccc2sc(NC(=O)c3c(F)cc(N4CCNCC4)cc3F)nc12 [Compound T056, 2,6-difluoro-N-(4-isopropoxybenzo[d]thiazol-2-yl)-4-(piperazin-1-yl)benzamide] |  | 7.4
COc1cccc2sc(NC(=O)c3c(F)cc(C(=O)N4CCNCC4)cc3F)nc12 [Compound T040, 2,6-difluoro-N-(4-methoxybenzo[d]thiazol-2-yl)-4-(piperazine-1-carbonyl)benzamide] | 0.341 | 6.33
O=C(Nc1nc2c(F)cc(F)cc2s1)c1c(F)cc(N2CCNCC2)cc1F [Compound T035] |  | 5.02
C#Cc1cccc2sc(NC(=O)c3c(F)cc(N4CCNC[C@H]4C)cc3F)nc12 [Compound T061, (R)-N-(4-ethynylbenzo[d]thiazol-2-yl)-2,6-difluoro-4-(2-methylpiperazin-1-yl)benzamide] | 0.03 | 0.3
CCOc1cccc2sc(NC(=O)c3c(F)cc(N4CCNCC4)cc3F)nc12 [Compound T057, N-(4-ethoxybenzo[d]thiazol-2-yl)-2,6-difluoro-4-(piperazin-1-yl)benzamide] |  | 8.7
COc1cc(OC)c2nc(NC(=O)c3c(F)cc(N4CCNCC4)cc3F)ccc2c1 [Compound Q006, N-(6,8-dimethoxyquinolin-2-yl)-2,6-difluoro-4-(piperazin-1-yl)benzamide] |  | 11.1
